According to PMC4773988, “Structure-based Inhibitor Design for the Intrinsically Disordered Protein c-Myc” (Scientific Reports, 2016):

Legend:
[1] = Solubility in water; format: physicochemical
[2] = cited from earlier work

Row | Compound | Solubility in water [1] | Cell penetration [2]
1 | O=C(NC(NC(=S)Nc1ccc(I)cc1)C(Cl)(Cl)Cl)OCc1ccccc1 (stereo not drawn) [PKUMDL-YC-1203] | less soluble in water | 
2 | JY-3-094 |  | penetrates cells poorly
3 | Cc1ccccc1C(=O)NC(NC(=S)Nc1cc(Cl)cc(Cl)c1Cl)C(Cl)(Cl)Cl (stereo not drawn) [PKUMDL-YC-1204] | less soluble in water | 
